Test results reported in patent publication US9889225B2 (KAOHSIUNG MEDICAL UNIVERSITY, priority 2010, dated 2018).

How the values were obtained:
rat femur bone defect [1] = conditions: 6 weeks after implantation
Method: (§1) For anesthesia, an intraperitoneal injection with a mixture of ketamin hydrochloride (100 mg/ml per 80 mg/kg body weight) and xylazin 2% (12 mg/kg body weight) were used. The left thigh was shaved and a 3 cm lateral longitudinal skin incision was made. The lateral approach was performed posterior to vastus lateralis without damaging the muscle. A bone defect, 0.1 cm×0.4 cm in size, on left femur was created at middle portion of shaft by using a 0.5 mm cone-shape bur. After that, the implant was inserted into the cavity and covered with […] ™ (Johnson & Johnson Medical Limited, Neuchatel, Switzerland) to fix the implant in place. Radiographs were taken to verify the correct position of the bone defect using the great trochanter as control point. At the end of operation, skin wounds were sutured. Six weeks after operation, animals were sacrificed for biomechanical and histological analysis.
Femoral bone specimens were harvested for histological study 6 weeks after implantation. […] The 5-mm thick bone sections were removed and stained with hematoxylin and eosin (H&E; Santa Cruz, Santa Cruz, Calif., USA). A microscope with 10×, 100×, 400× magnification, equipped with a digital CCD camera (Eclipse 50i; Nikon Inc., Mich., USA), were used for images of the sections.

[2] = system: bone morphogenetic protein-2 (BMP-2); conditions: 6 weeks after implantation, versus PLGA group
Method: as §1
The 5 μm thick sections of femoral bone were incubated in 0.1% EDTA for 10 min at 100 degree for antigen retrieval. Immunohistochemistry (IHC) was performed using the Immuno Cruz Staining System (Santa Cruz). After incubating with 5% BSA/PBS (Sigma, Saint Louis, Mo., USA) blocking solution for 2 h at room temperature, sections were labeled with human-specific anti-BMP2 (dilution 1:50; Abcam) overnight at 4 degree in a humid chamber. […]

rat femur bone defect [3] = test: Rat femur bone defect model, micro-CT trabecular bone volume; conditions: 6 weeks after surgery; for trabecular bone volume in the femoral defect site: normalized with total defect length
Method: For anesthesia, an intraperitoneal injection with a mixture of ketamin hydrochloride (100 mg/ml per 80 mg/kg body weight) and xylazin 2% (12 mg/kg body weight) were used. The left thigh was shaved and a 3 cm lateral longitudinal skin incision was made. The lateral approach was performed posterior to vastus lateralis without damaging the muscle. A bone defect, 0.1 cm×0.4 cm in size, on left femur was created at middle portion of shaft by using a 0.5 mm cone-shape bur. After that, the implant was inserted into the cavity and covered with […] ™ (Johnson & Johnson Medical Limited, Neuchatel, Switzerland) to fix the implant in place. Radiographs were taken to verify the correct position of the bone defect using the great trochanter as control point. At the end of operation, skin wounds were sutured.
Animals were anesthesia during micro-CT images scanning. Small animal micro-CT (Skyscan 1076, Bruker, Belgium) was employed for analyzing bone repair process in living animals and calculated by image software (CTAn) at the desired time point. The scan conditions were set at an aluminum filter of 0.5mm, 35 μm scanning resolution, x-ray voltage of 50 KV, x-ray current of 200 mA and an exposure time of 600 m-seconds. The area used for analysis began at the defect site close to femoral head and through all the defect area. Total volume indicated the inner area of cortical bone. Trabecular bone volume indicated the total trabecular bone within the total volume. Trabecular bone volume was normalized with total defect length in each rat.

rat femur bone defect [4] = test: Rat femur bone defect model, 3-point bending test; conditions: post-surgery 6 weeks
Method: as §1
The present invention employed 3-point bending test to analyze the mechanical property at the end of experiment. Counterlateral femoral bone served as a non-defect femoral bone.
Mechanical property of bone: 3-point bending test: For testing the mechanical property of the repaired femoral defect, the Instron 4466 (model 4465; Instron, Canton, Mass.) was employed for mechanical tests. The rat femur was removed from body and all the connective tissues were stripped off. For 3-point bending, the femur bone was positioned onto two supports, and a single-pronged loading device was applied to the opposite surface at a point precisely in the middle between the two supports. The distance between two supports was 4 cm. Loading force was 1N with speed of 1 mm/min. The experimental procedure involved the measurement of the deflection of the bone at the point of load application and the concurrent measurement of the load, yielding a force-deflection graph. Parameters obtained from this graph include whole-bone stiffness (defined as the slope of the early, linear portion of the load-deflection curve), yield point, maximal load and fracture load. The Young's modulus of the material from the geometry of the loading device and the stiffness of the bone were measured. The data calculations were all based on beam theory and the Hooke's law.

## poly(lactic-co-glycolic acid) cross-linked alendronate [PLGA-ALN]
Rat femur bone defect [1]
  cortical bone thickness and trabecular bone (H&E) versus PLGA group: Thicker cortical bone and more trabecular bone
[2]
  immunolocalized BMP-2 in the repaired cortical bone and trabecular bone: predominant
Rat femur bone defect [3]; 5 mg implant
  trabecular bone volume relative to the control or PLGA group: 2 times
  trabecular bone volume in the femoral defect site: 1.413±0.21
Rat femur bone defect [3]; 10 mg implant
  trabecular bone volume relative to the control or PLGA group: 2 times
  trabecular bone volume in the femoral defect site: 1.45±0.35
Rat femur bone defect [4]; 5 mg implant
  Young's modulus: 0.43±0.03 GPa
  maximal strength: 172.5±18.2 N
  total energy absorption: 106.43±15.36 mm*N
Rat femur bone defect [4]; 10 mg implant
  Young's modulus: 0.51±0.03 GPa
  maximal strength: 191.7±11.7 N
  total energy absorption: 110.71±9.95 mm*N
